Consider one compound from patent US20260061037A1, “BACILLUS SPECIES STRAIN EXPRESSING SUPEROXIDE DISMUTASE, BACILLUS SPECIES STRAIN SPORE AND/OR SUPEROXIDE DISMUTASE, AND USE THEREOF FOR PREVENTING OR TREATING OF FIBROTIC DISEASE” (HLB GENEX, INC., priority 2022, published 2026).

Data set [1] deals with nonalcoholic steatohepatitis (NASH) STAM™ animal model. The data set is classed as in vivo. The following applies: PO, QD, GF423 1×10^7 CFU, telmisartan 10 mg/kg. As for the experimental part:
C57BL/6J mice (14-day-pregnant female, 6-week-old male) (purchased from SLC, Japan) were maintained in a SPF facility with controlled temperature (23±3° C.), humidity (50±20%), lighting (12-hour artificial light/dark cycle; light cycle from 08:00 to 20:00), and air exchange.
NASH was induced in all groups except the normal group of 8 mice as follows: On the second day after birth, the male mice were injected subcutaneously once with 200 μg streptozotocin (STZ, purchased from Sigma-Aldrich) solution. […]
The 10-week-old mice with induced NASH were randomized to 9 groups, each containing 8 mice, based on their body weight on the day before the start of treatment. […] The NASH model mice were stratified by the body weight, and the standard deviation (SD) was calculated to minimize the difference in mean body weight between the groups. […]
(§1) The GF427-administered groups were administered once a day at five dose levels: 0.05×10^7 (lowest dose), 0.1×10^7 (low dose), 0.5×10^7 (middle dose), 1×10^7 (high dose), and 5×10^7 CFU (highest dose) per mouse. […] The animals were monitored daily for viability, clinical signs (lethargy, convulsion, respiratory distress), and behavior to observe whether there are any significant clinical signs of toxicity, coma, and death before and after administration of the test substance. […]

Data set [2] has the same test system. Nature of the data set: Plasma ALT level in NASH STAM model. The data set is classed as in vivo, C57BL/6J mice. The following applies: PO, QD; GF423 1×10^7 CFU, GF103 10 U, telmisartan 10 mg/kg; vs disease control group. The method, then:
(§2) NASH was induced in all groups except the normal group of 8 mice as follows: On the second day after birth, the male mice were injected subcutaneously once with 200 μg streptozotocin (STZ, purchased from Sigma-Aldrich) solution. After the mice reached 4 weeks of age, a solid high-fat diet (HFD, 57 kcal % fat, purchased from CLEA Japan, Inc., Cat #HFD32) was placed on a metal lid on top of the cage so that the mice access it ad libitum, thereby inducing NASH
as §1, with “mouse. The GF423-administered group was administered once a day at a dose of 1×10^7 CFU per mouse. GF103 was administered once a day at a dose of 10 U per mouse. Telmisartan was administered once a day at a dose of 10 mg/kg.” for “mouse.”
Plasma ALT level was measured using FUJI DRI-CHEM 7000 (purchased from Fujifilm Corporation). […]

Data set [3] shares this test system. Put plainly: Sirius red staining of liver (fibrosis area) in NASH STAM model. The data set is classed as in vivo, C57BL/6J mice. The following applies: PO, QD; GF423 1×10^7 CFU, GF103 10 U, telmisartan 10 mg/kg; vs disease control group. As for the experimental part:
as §2
The GF427-administered groups were administered once a day at five dose levels: 0.05×10^7 (lowest dose), 0.1×10^7 (low dose), 0.5×10^7 (middle dose), 1×10^7 (high dose), and 5×10^7 CFU (highest dose) per mouse. The GF423-administered group was administered once a day at a dose of 1×10^7 CFU per mouse. […] The animals were monitored daily for viability, clinical signs (lethargy, convulsion, respiratory distress), and behavior to observe whether there are any significant clinical signs of toxicity, coma, and death before and after administration of the test substance. […]
For quantitative analysis of fibrosis area, bright field images of the Sirius red-stained section were captured around the central vein using a digital camera (DFC295, purchased from Leica) at 200-fold magnification, and the positive areas in 5 fields/section were measured using ImageJ software (National Institute of Health, USA). […]

The test system is the same in data set [4]. The data set is classed as in vivo. The method, then:
as §2
The GF427-administered groups were administered once a day at five dose levels: 0.05×10^7 (lowest dose), 0.1×10^7 (low dose), 0.5×10^7 (middle dose), 1×10^7 (high dose), and 5×10^7 CFU (highest dose) per mouse. The GF423-administered group was administered once a day at a dose of 1×10^7 CFU per mouse. GF103 was administered once a day at a dose of 10 U per mouse. Telmisartan was administered once a day at a dose of 10 mg/kg. GF427, GF423, and GF103 were administered orally in the form of a vehicle at a dose of 100 μL, and telmisartan was administered orally in the form of being supplemented with reverse osmosis water (RO water) at a dose of 10 mL/kg. The normal and disease control groups were not subjected to any treatment before sacrifice, and were sacrificed at 13 weeks of age by exsanguination via direct cardiac puncture under isoflurane (purchased from Pfizer Inc.) anesthesia. The animals were monitored daily for viability, clinical signs (lethargy, convulsion, respiratory distress), and behavior to observe whether there are any significant clinical signs of toxicity, coma, and death before and after administration of the test substance. […] All animal care and experiments were conducted in accordance with laws and regulations related to animal welfare and management.
At sacrifice of the mice, the whole liver was collected and washed with cold saline. Photographs of the individual whole liver (parietal side and visceral side) were taken. Then, the liver weight was measured and the liver-to-body weight ratio was calculated. […]

The test system is the same in data set [5]. Put plainly: H&E staining of liver and NAFLD activity score in NASH STAM model. The data set is classed as in vivo, C57BL/6J mice. The following applies: PO, QD; GF423 1×10^7 CFU, GF103 10 U, telmisartan 10 mg/kg; vs disease control group. As for the experimental part: as §2
The GF427-administered groups were administered once a day at five dose levels: 0.05×10^7 (lowest dose), 0.1×10^7 (low dose), 0.5×10^7 (middle dose), 1×10^7 (high dose), and 5×10^7 CFU (highest dose) per mouse. The GF423-administered group was administered once a day at a dose of 1×10^7 CFU per mouse. GF103 was administered once a day at a dose of 10 U per mouse. Telmisartan was administered once a day at a dose of 10 mg/kg. […] The animals were monitored daily for viability, clinical signs (lethargy, convulsion, respiratory distress), and behavior to observe whether there are any significant clinical signs of toxicity, coma, and death before and after administration of the test substance. […]
The paraffin block of liver tissue prepared in Example 7.3 was sectioned using a rotary microtome (purchased from Leica Microsystems). […] The tissue slides were subjected to H&E staining and evaluated by the investigator. […]

Where [6] appears, read: PO, QD, weeks 10 to 13, GF423 1×10^7 CFU, GF103 10 U, telmisartan 10 mg/kg, vs disease control group.

Structures are written as SMILES.

Consider `CCCc1nc2c(C)cc(-c3nc4ccccc4n3C)cc2n1Cc1ccc(-c2ccccc2C(=O)O)cc1` [telmisartan, Telmisartan], for which the “mean body weight during the treatment period” value in data set [1] (weeks 10 to 13, GF427 0.05-5×10^7 CFU, GF103 10 U, vs disease control group) is on record as “significantly lower than that of the disease control group from day 17 to day 21”. Also, the “mice found dead or euthanized before day 21” value in data set [1] (8 mice per group) was “two of the eight mice were euthanized”. In data set [2], the “plasma ALT level” value was “tended to show a decrease in plasma ALT level”. The “fibrosis area (Sirius red-positive area)” value in data set [3] is “tended to decrease”. For the same compound, in data set [4] (setting [6]), the mean liver weight result is recorded as “significant decrease in mean liver weight” and the “mean liver-to-body weight ratio” value is listed as “tended to show a decrease in mean liver-to-body weight ratio”. For the same compound, in data set [4] (mouse, in vivo, po), the “daily mean body weight on the day of sacrifice” value is listed as “significant decrease in daily mean body weight on the day of sacrifice”. Also, the “NAFLD activity score (NAS)” value in data set [5] is “significant decrease in NAS”.
